Calls of active or inactive are those of the source. The rule behind the calls is not given here.
Experiments:
Cryptosporidium parvum [1] = test: AntiCryptosporidium parvum activity Compounds added 3h after t0, IC 50 (uM); assay type: functional, organism-based
[2] = HL60 CC50 (uM) Cytotoxicity; assay type: functional; details: HL-60
HepG2 = test: Cytotoxicity data HepG2 CC20 (uM); assay type: functional
Cryptosporidium parvum [3] = test: AntiCryptosporidium parvum activity Compounds added at t0, IC 50 (uM); assay type: functional, organism-based
Schistosoma mansoni [4] = test: AntiSchistosoma mansoni activity Newly Transformed Schistosomula: inhibition at 10 uM at 72h (%); assay type: functional
Schistosoma mansoni [5] = test: AntiSchistosoma mansoni activity Adults IC50 (uM); assay type: functional, organism-based
MRC5 = test: MRC5 CC50 (uM) Cytotoxicity; assay type: functional; details: Homo sapiens
Schistosoma mansoni [6] = test: AntiSchistosoma mansoni activity Larva IC50 (uM); assay type: functional, organism-based
Schistosoma mansoni [7] = test: AntiSchistosoma mansoni activity Newly Transformed Schistosomula: IC50 at 72h (uM); assay type: functional, organism-based
Schistosoma mansoni [8] = test: AntiSchistosoma mansoni activity Juveniles IC50 (uM); assay type: functional, organism-based
Toxoplasma gondii [9] = test: AntiToxoplasma gondii activity data 2-day killing assay: inhibition at 10 uM (%) Experiment E; assay type: functional
Toxoplasma gondii [10] = test: AntiToxoplasma gondii activity data Inhibition of plaque forming efficiency (%) Experiment A; assay type: functional; design: concentration or dose not given beside the values
Toxoplasma gondii [11] = test: AntiToxoplasma gondii activity data 2-day killing assay: inhibition at 10 uM (%) Experiment D; assay type: functional
Toxoplasma gondii [12] = test: AntiToxoplasma gondii activity data 2-day killing assay: inhibition at 10 uM (%) Experiment C; assay type: functional; details: 48 h
Toxoplasma gondii [13] = test: AntiToxoplasma gondii activity data 2-day killing assay: IC50 (uM), Experiment F; assay type: functional, organism-based; details: Toxoplasma gondii, 48 h; read-out: IC50
Trypanosoma brucei [14] = test: AntiTrypanosoma brucei activity T. b. brucei IC50 (uM); assay type: functional, organism-based
Trypanosoma brucei [15] = test: AntiTrypanosoma brucei activity T. b. rhodesiense IC50 (uM); assay type: functional, organism-based
Trypanosoma cruzi = test: AntiTrypanosoma cruzi activity IC50 (uM); assay type: functional, organism-based
Leishmania infantum = test: AntiLeishmania activity L. infantum (macrophages) IC50 (uM); assay type: functional, organism-based
Leishmania major = test: AntiLeishmania activity L. major IC50 (uM); assay type: functional, organism-based
[16] = PMM CC50 (uM) Cytotoxicity; assay type: functional; details: Macrophage
Schistosoma mansoni [17] = test: AntiSchistosoma mansoni activity Adults: Effect at 10 uM after 48h; assay type: functional, organism-based
Onchocerca ochengi [18] = test: AntiOnchocerca activity O. ochengi adult females: final mean inhibition motility at 10 uM on Day 7 (%); assay type: functional
Onchocerca gutturosa [19] = test: AntiOnchocerca activity O. gutturosa adult males: MTT reduction at 12.5 uM (%); assay type: functional; design: scale not given: the % may be the effect or the level left
Onchocerca ochengi [20] = test: AntiOnchocerca activity O. ochengi adult males: final mean inhibition motility at 10 uM on Day 5 (%); assay type: functional
Onchocerca gutturosa [21] = test: AntiOnchocerca activity O. gutturosa adult males: Motility reduction at 12.5 uM (%); assay type: functional; design: scale not given: the % may be the effect or the level left
Onchocerca lienalis = test: AntiOnchocerca activity O. lienalis microfilariae Motility reduction (%); assay type: functional; design: concentration or dose not given beside the values
Brugia pahangi = test: AntiBrugia pahangi activity Average inhibition motility at 10 uM (%); assay type: functional
Onchocerca volvulus = test: AntiOnchocerca activity O. volvulus L3 Molting assay: inhibition at 10 uM (%); assay type: functional
L6 = test: L6 CC50 (uM) Cytotoxicity; assay type: functional; details: Rattus norvegicus
Leishmania = test: AntiLeishmania activity Toxicity on infected PMM (uM); assay type: functional
Leishmania donovani [22] = test: AntiLeishmania activity L. donovani (macrophages) IC50 (uM); assay type: functional, organism-based
Leishmania donovani [23] = test: AntiLeishmania activity L. donovani (axenic) IC50 (uM); assay type: functional, organism-based

Clc1ccc(-n2cc(COc3ccnc4ccccc34)nn2)cc1
IC50 (Cryptosporidium parvum [1]): 1.51 µM | CC50 [2]: > 50 µM | CC20 (HepG2): 13.6 µM | IC50 (Cryptosporidium parvum [3]): > 5 µM

c1ccc(-c2[nH]c3ccccc3c2C(c2ccccn2)N2CCCC2)cc1 (stereo not given)
Inhibition (Schistosoma mansoni [4]): 100% | CC20 (HepG2): 1 µM | IC50 (Schistosoma mansoni [5]): 3.2 µM | CC50 (MRC5): 86 µM | IC50 (Schistosoma mansoni [6]): 0.5 µM | IC50 (Schistosoma mansoni [7]): 0.51 µM | IC50 (Schistosoma mansoni [8]): 2.5 µM

CN1CCC(c2cc(-c3ccncc3)c(-c3ccc(F)cc3)[nH]2)CC1
Inhibition (Toxoplasma gondii [9]): 97.9% | CC50 [2]: > 50 µM | Inhibition (Toxoplasma gondii [10]): 100% | Inhibition (Toxoplasma gondii [11]): 100% | inhibition at 10 µM (Toxoplasma gondii [12]): 99.3% | IC50 (Toxoplasma gondii [13]): 1.21 µM

O=C(CN1CCOCC1)Nc1ccc2ncnc(Nc3ccc(OCc4cccc(F)c4)c(Cl)c3)c2c1
IC50 (Trypanosoma brucei [14]): 5.31 µM | IC50 (Trypanosoma brucei [15]): 3.07 µM | IC50 (Trypanosoma cruzi): 0.95 µM | CC20 (HepG2): 10.9 µM | IC50 (Leishmania infantum): > 32 µM | IC50 (Leishmania major): 12.4 µM | CC50 (MRC5): 6.4 µM | CC50 [16]: > 32 µM

COCC(C)NC(=O)CSc1ncnc2sc(-c3ccccc3)cc12 (stereo not given)
Inhibition (Schistosoma mansoni [4]): 50% | Activity (Schistosoma mansoni [17]): inactive | CC20 (HepG2): >80 µM

CC(C)n1nc(-c2cc3c(Cl)cccc3[nH]2)c2c(N)ncnc21
Inhibition (Toxoplasma gondii [9]): 99.5% | CC50 [2]: > 25 µM | Inhibition (Toxoplasma gondii [10]): 100% | Inhibition (Toxoplasma gondii [11]): 100% | inhibition at 10 µM (Toxoplasma gondii [12]): 99.6% | IC50 (Toxoplasma gondii [13]): 0.16 µM

COC(=O)c1c(NC(=O)c2cc3ccccc3oc2=O)sc2c1CCN(Cc1ccccc1)C2
Inhibition (Onchocerca ochengi [18]): 8% | CC50 [2]: > 50 µM | Activity (Onchocerca gutturosa [19]): 0% | CC20 (HepG2): 12.3 µM | Inhibition (Onchocerca ochengi [20]): 0% | Activity (Onchocerca gutturosa [21]): 21.4% | Activity (Onchocerca lienalis): 33.3% | Inhibition (Brugia pahangi): 10% | Inhibition (Onchocerca volvulus): 100%

COc1ccc(OC)c(NCc2ccc3nc(N)nc(N)c3c2Cl)c1
IC50 (Cryptosporidium parvum [1]): 3.98 µM | CC50 [2]: > 25 µM | CC20 (HepG2): 3.44 µM | IC50 (Cryptosporidium parvum [3]): 0.1 µM

Nc1ccc2ncnc(Nc3ccc(OCc4cccc(F)c4)c(Cl)c3)c2c1
IC50 (Trypanosoma brucei [14]): > 32 µM | IC50 (Trypanosoma brucei [15]): 13.1 µM | IC50 (Trypanosoma cruzi): 4.03 µM | CC20 (HepG2): 9.72 µM | IC50 (Leishmania infantum): > 32 µM | IC50 (Leishmania major): 10.4 µM | CC50 (MRC5): > 32 µM | CC50 [16]: > 32 µM

CC(C)(C)n1nc(Cc2ccc(F)c(Cl)c2)c2c(N)ncnc21
Inhibition (Toxoplasma gondii [9]): 95.5% | CC50 [2]: > 25 µM | Inhibition (Toxoplasma gondii [10]): 100% | Inhibition (Toxoplasma gondii [11]): 100% | inhibition at 10 µM (Toxoplasma gondii [12]): 98.3% | IC50 (Toxoplasma gondii [13]): 1.7 µM

CC(C)(C)n1nc(-c2ccccc2)c2c(N)ncnc21
Inhibition (Toxoplasma gondii [9]): 97.5% | CC50 [2]: > 25 µM | Inhibition (Toxoplasma gondii [10]): 100% | Inhibition (Toxoplasma gondii [11]): 100% | inhibition at 10 µM (Toxoplasma gondii [12]): 96.5% | IC50 (Toxoplasma gondii [13]): 1.1 µM

COc1ccc(-c2cnc3cnc(-c4cccc(OC(C)C)c4)cn23)cc1
Inhibition (Schistosoma mansoni [4]): 93% | Activity (Schistosoma mansoni [17]): Active | CC20 (HepG2): 24.3 µM | IC50 (Schistosoma mansoni [5]): 4.9 µM | CC50 (MRC5): 40.1 µM | IC50 (Schistosoma mansoni [6]): 6.7 µM | IC50 (Schistosoma mansoni [7]): 1.18 µM | IC50 (Schistosoma mansoni [8]): 5.7 µM

CC(C)(C)n1nc(Cc2cccc3ccccc23)c2c(N)ncnc21
IC50 (Cryptosporidium parvum [1]): > 10 µM | CC50 [2]: 24.1 µM | CC20 (HepG2): 19 µM | IC50 (Cryptosporidium parvum [3]): 0.1 µM

CCOc1ccc2cc(-c3nn(C(C)(C)C)c(N)c3C(N)=O)cnc2c1
IC50 (Cryptosporidium parvum [3]): 0.05 µM

COc1ccc(-c2nnc3ccc(-c4cccc(C(C)C)c4)cn23)cc1OC
Inhibition (Schistosoma mansoni [4]): 79% | Activity (Schistosoma mansoni [17]): Active | CC20 (HepG2): 7.5 µM | IC50 (Schistosoma mansoni [5]): 1.6 µM | CC50 (MRC5): 18.6 µM | IC50 (Schistosoma mansoni [6]): 6.6 µM | IC50 (Schistosoma mansoni [7]): 5.69 µM | IC50 (Schistosoma mansoni [8]): 4 µM

Cc1cc(OCC(=O)Nc2ccc(C(C)C)cc2)n(C)c(=O)c1C#N
Inhibition (Schistosoma mansoni [4]): 13.3% | CC20 (HepG2): >80 µM | IC50 (Schistosoma mansoni [5]): 7.2 µM | IC50 (Schistosoma mansoni [8]): 3.88 µM

Clc1ccc(Cl)c(CO[C@H]2CCCC[C@@H]2n2ccnc2)c1
CC50 (L6): 30.7 µM | IC50 (Trypanosoma brucei [14]): > 32 µM | Toxicity on infected macrophages (Leishmania): 30 µM | IC50 (Trypanosoma brucei [15]): 22.9 µM | IC50 (Trypanosoma cruzi): 1.36 µM | CC20 (HepG2): 37.1 µM | IC50 (Leishmania infantum): 16.2 µM | CC50 (MRC5): > 32 µM | CC50 [16]: 16 µM | IC50 (Leishmania donovani [22]): 12.8 µM | IC50 (Leishmania donovani [23]): 15.6 µM

COc1ccc(-c2onc(C(F)(F)F)c2-c2ccc(Cl)cc2)c(O)c1
Inhibition (Schistosoma mansoni [4]): 20% | IC50 (Schistosoma mansoni [5]): 5.3 µM | CC50 (MRC5): 8.3 µM | IC50 (Schistosoma mansoni [6]): 3.36 µM | IC50 (Schistosoma mansoni [8]): 7.02 µM

CS(=O)(=O)c1ccc(C(=O)N(CC2CCCO2)c2nc3ccccc3s2)cc1[N+](=O)[O-] (stereo not given)
Inhibition (Schistosoma mansoni [4]): 100% | CC20 (HepG2): 6.94 µM | IC50 (Schistosoma mansoni [5]): 4.8 µM | CC50 (MRC5): 6.2 µM | IC50 (Schistosoma mansoni [6]): 0.29 µM | IC50 (Schistosoma mansoni [8]): 3.22 µM

Cc1ccccc1C(=O)N1N=C(Nc2ccccc2)SC1(C)C
Inhibition (Schistosoma mansoni [4]): 0% | CC20 (HepG2): 8 µM | IC50 (Schistosoma mansoni [5]): 5.3 µM | CC50 (MRC5): > 50 µM | IC50 (Schistosoma mansoni [6]): 6.7 µM | IC50 (Schistosoma mansoni [8]): 5.8 µM

— ChEMBL document CHEMBL3832761, “MMV Pathogen Box Bioactivity Data” (2017)
